Results published in patent publication US6620828B2, “Thiazole compounds and pharmaceutical compositions for inhibiting protein kinases and methods for their use” (Agouron Pharmaceuticals, Inc., priority 1999, dated 2003).
Where “and” joins values, the source holds several entries; their conditions need not be identical. Equal values may be shown once.

How the values were obtained:
FGF-R1 = biological target: T1, FGF-R1 (Homo sapiens, UniProt P11362, C488A/C584S/L457V); assay: FGF-R spectrophotometric assay; type: biochemical; details: Table 2
T1 construct: starting from the endogenous methionine residue 456 to glutamate 766; made in house; host or cells: baculovirus vector expression system
T1 sequence (P11362 456-766 L457V/C488A/C584S): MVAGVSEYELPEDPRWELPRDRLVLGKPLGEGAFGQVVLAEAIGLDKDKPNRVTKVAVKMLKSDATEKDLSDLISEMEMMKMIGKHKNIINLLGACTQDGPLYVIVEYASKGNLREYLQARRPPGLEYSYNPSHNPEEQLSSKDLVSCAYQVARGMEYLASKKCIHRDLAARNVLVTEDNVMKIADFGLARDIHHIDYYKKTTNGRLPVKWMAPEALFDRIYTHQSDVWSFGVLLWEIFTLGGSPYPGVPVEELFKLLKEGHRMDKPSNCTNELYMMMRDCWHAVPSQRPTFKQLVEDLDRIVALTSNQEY
Method in brief: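 Kinase domain (Met456–Glu766, baculovirus-expressed) used at 50 nM in a spectrophotometric assay run as for VEGF-R2. Substrates were 2 mM ATP and 15 mM poly(E4Y1).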

LCK tyrosine kinase = biological target: T2, LCK tyrosine kinase (Homo sapiens, UniProt P06239, C224D/P223M); assay: LCK spectrophotometric assay; type: biochemical; details: Table 2; for LCK % inhibition @ 1: at 1 (head μM)
T2 construct: starting from amino acid residue 223 to the end of the protein at residue 509; made in house; host or cells: insect cells
T2 sequence (P06239 223-509 P223M/C224D): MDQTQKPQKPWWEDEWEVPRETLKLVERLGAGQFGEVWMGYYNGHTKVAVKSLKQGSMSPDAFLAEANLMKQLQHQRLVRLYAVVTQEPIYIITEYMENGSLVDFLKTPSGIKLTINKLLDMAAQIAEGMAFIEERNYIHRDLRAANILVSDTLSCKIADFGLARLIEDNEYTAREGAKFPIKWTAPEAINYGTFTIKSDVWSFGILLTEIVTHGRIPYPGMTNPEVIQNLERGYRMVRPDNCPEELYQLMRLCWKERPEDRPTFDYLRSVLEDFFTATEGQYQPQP
Method: LCK Construct for Assay: The LCK tyrosine kinase was expressed in insect cells as an N-terminal deletion starting from amino acid residue 223 to the end of the protein at residue 509, with the following two amino acid substitutions at the N-terminus: […] and C224D.
The spectrophotometric assay was carried out as described above for VEGF-R2, except for the following changes in concentration: LCK=60 nM, MgCl2=0 mM, poly(E4Y1)=20 mM.

[1] = system: human umbilical vein endothelial cells (HUVEC); assay: HUVEC proliferation assay; type: cell-based; details: Homo sapiens, HUVEC, Table 2
Method in brief: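 Exponentially growing HUVEC were serum-starved 24 h (F12K + 1% FBS), pre-treated 1 h with compound (0.1% DMSO final), then stimulated with 6 ng/ml VEGF. Proliferation was read 72 h later by MTT reduction (A595). IC50 came from seven 0.5-log concentrations in triplicate; screens gave % inhibition relative to VEGF-only and starved wells.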

[2] = system: lung cancer cells (line MV522); assay: Cancer cell proliferation (MV522) assay; type: cell-based; details: MV522, Table 2
FAKcd409 = biological target: T3, FAKcd409 (Homo sapiens, UniProt Q05397, P410T); assay: FAK HTS assay; type: biochemical; details: 10 uM compound, HTS Delphia assay; 10 µM
T3 construct: comprises residues methionine 409 to glutamate 689; made in house; host or cells: baculovirus vector expression system
T3 sequence (Q05397 409-689 P410T): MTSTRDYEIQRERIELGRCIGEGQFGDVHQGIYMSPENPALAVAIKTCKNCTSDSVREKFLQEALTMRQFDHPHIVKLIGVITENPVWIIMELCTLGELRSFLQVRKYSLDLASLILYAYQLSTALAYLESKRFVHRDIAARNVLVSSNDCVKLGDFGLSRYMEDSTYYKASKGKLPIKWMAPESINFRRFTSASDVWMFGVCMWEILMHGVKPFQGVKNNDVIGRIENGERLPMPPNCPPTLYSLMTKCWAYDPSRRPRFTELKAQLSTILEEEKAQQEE

CHK1 = biological target: T4, CHK1 (Homo sapiens, UniProt O14757); assay: CHK1 high-throughput screening; type: biochemical; details: read-out: % inhibition @ 20 μM, Table 4, repeated entries per example
T4 sequence (O14757 1-476): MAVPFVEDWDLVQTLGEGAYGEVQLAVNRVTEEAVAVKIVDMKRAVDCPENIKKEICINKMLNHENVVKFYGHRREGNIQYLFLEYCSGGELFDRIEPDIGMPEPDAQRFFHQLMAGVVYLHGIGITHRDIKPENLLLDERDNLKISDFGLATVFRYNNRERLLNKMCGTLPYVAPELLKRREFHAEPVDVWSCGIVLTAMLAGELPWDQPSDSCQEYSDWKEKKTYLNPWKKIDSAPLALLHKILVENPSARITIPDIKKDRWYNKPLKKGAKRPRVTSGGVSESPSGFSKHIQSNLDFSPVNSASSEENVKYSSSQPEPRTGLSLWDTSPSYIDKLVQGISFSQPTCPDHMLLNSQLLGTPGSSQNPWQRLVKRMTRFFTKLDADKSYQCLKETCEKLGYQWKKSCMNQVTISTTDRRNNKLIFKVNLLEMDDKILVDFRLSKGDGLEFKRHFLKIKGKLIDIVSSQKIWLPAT

Row | Ki (FGF-R1) | LCK % inhibition @ 1 (LCK tyrosine kinase) | IC50 [2] | melting point | LCK % inhibition @ 5 (LCK tyrosine kinase; at 5 (head μM)) | % inhibition of FAK (FAKcd409) | inhibition at 20 µM (CHK1) | SMILES | IC50 [1]
1 | 2.4 µM | 21% @ | > 10 µM | 226 to 230 °C | – | – | – | COc1cc(Nc2nc(N)c(-c3nc(-c4cccc(O)c4)cs3)s2)cc(OC)c1OC [A(17), 3-[4′-Amino-2′-(3,4,5-trimethoxy-phenylamino)-[2,5′]bithiazolyl-4-yl]-phenol] | > 1 µM
2 | – | – | > 10 µM | – | 10% @ | −6% and −11% and −8% | 7.1% | CCCNc1nc(N)c(-c2nc(-c3cccc(O)c3)cs2)s1 [A(29), 3-(4′-Amino-2′-propylamino-[2,5′]bithiazolyl-4-yl)-phenol] | > 1 µM
3 | – | 42% @ | 5.4 µM | – | – | – | – | COc1cc(Nc2nc(N)c(-c3nc(-c4cccc(O)c4)no3)s2)cc(OC)c1OC [K(1), 3-{5-[4-Amino-2-(3,4,5-trimethoxy-phenylamino)-thiazol-5-yl]-[1,2,4]oxadiazol-3-yl}-phenol] | 0.95 µM
